Source: patent US10533010B2, “Substituted indole Mcl-1 inhibitors” (Vanderbilt University, priority 2014, dated 2020)

target: recombinant Mcl-1 (residues 172-327) (Homo sapiens (Human), UniProt Q07820); assay: Fluorescence polarization anisotropy competition assay (FITC-Bak or FITC-Bim BH3 peptide) with Mcl-1; type: binding; details: not given
Sequence (Q07820 172-327): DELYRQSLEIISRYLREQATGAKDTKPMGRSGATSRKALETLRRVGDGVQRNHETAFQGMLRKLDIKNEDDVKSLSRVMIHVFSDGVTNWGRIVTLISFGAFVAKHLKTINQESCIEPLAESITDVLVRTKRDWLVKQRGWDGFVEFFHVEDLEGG

SMILES	Ki [nM]
Cc1cc(OCCCc2c3n(c4c(-c5c(C)nn(C)c5C)cc(Cl)cc24)CCCN(c2cc(C(=O)O)cc4c2ccn4C)C3=O)cc(C)c1Cl [I-245, 4-(9-chloro-11-(3-(4-chloro-3,5-dimethylphenoxy)propyl)-1-oxo-7-(1,3,5-trimethyl-1H-pyrazol-4-yl)-4,5-dihydro-1H-[1,4]diazepino[1,2-a]indol-2(3H)-yl)-1-methyl-1H-indole-6-carboxylic acid]	101 to 299

same assay, conditions: Table 2; Ki bins given in nM; FITC-Bak or FITC-Bim peptide competition; Ki converted from IC50; read-out: Ki for Inhibition of Mcl-1

Ki [nM]	SMILES
< 50	Cc1cc(OCCCc2c(C(=O)N[C@@H]3CCCN(C(=O)C(=O)O)C3)[nH]c3c(-c4c(C)nn(C)c4C)c(Cl)ccc23)cc(C)c1Cl [I-327, (R)-2-(3-(6-chloro-3-(3-(4-chloro-3,5-dimethylphenoxy)propyl)-7-(1,3,5-trimethyl-1H-pyrazol-4-yl)-1H-indole-2-carboxamido)piperidin-1-yl)-2-oxoacetic acid]
< 50	Cc1cc(OCCCc2c3n(c4c(-c5c(C)nn(C)c5C)c(Cl)ccc24)CCCN(c2ccc(CC(=O)O)cc2)C3=O)cc(C)c1Cl [I-237, 2-(4-(8-chloro-11-(3-(4-chloro-3,5-dimethylphenoxy)propyl)-1-oxo-7-(1,3,5-trimethyl-1H-pyrazol-4-yl)-4,5-dihydro-H-[1,4]diazepino[1,2-a]indol-2(3H)-yl)phenyl)acetic acid]
< 50	Cc1cc(OCCCc2c3n(c4c(-c5c(C)nn(C)c5C)c(Cl)ccc24)CC(C)CNC3=O)cc(C)c1Cl (stereo not shown) [I-115, 8-chloro-1-(3-(4-chloro-3,5-dimethylphenoxy)propyl)-4-methyl-7-(1,3,5-trimethyl-1H-pyrazol-4-yl)-2,3,4,5-tetrahydro-1H-[1,4]diazepino[1,2-a]indol-1-one]
< 50	Cc1cc(OCCCc2c(C(=O)NCc3cc(C(=O)O)c(CN4CCc5ccccc5C4)o3)[nH]c3c(-c4c(C)nn(C)c4C)cccc23)cc(C)c1Cl [I-293, 5-((3-(3-(4-chloro-3,5-dimethylphenoxy)propyl)-7-(1,3,5-trimethyl-1H-pyrazol-4-yl)-1H-indole-2-carboxamido)methyl)-2-((3,4-dihydroisoquinolin-2(1H)-yl)methyl)furan-3-carboxylic acid]
< 50	Cc1cc(OCCCc2c3n(c4c(-c5c(C)nn(C)c5C)c(Cl)ccc24)CCCN(c2ccc(C(=O)O)c(C(F)(F)F)c2)C3=O)cc(C)c1Cl [I-93, 4-(8-chloro-11-(3-(4-chloro-3,5-dimethylphenoxy)propyl)-1-oxo-7-(1,3,5-trimethyl-1H-pyrazol-4-yl)-4,5-dihydro-1H-[1,4]diazepino[1,2-a]indol-2(3H)-yl)-2-(trifluoromethyl)benzoic acid]
< 50	Cc1cc(OCCCc2c3n(c4c(-c5c(C)nn(C)c5C)c(Cl)ccc24)CCN(Cc2ccc(C(=O)O)cc2)C3=O)cc(C)c1Cl [I-140, 4-((7-chloro-10-(3-(4-chloro-3,5-dimethylphenoxy)propyl)-1-oxo-6-(1,3,5-trimethyl-1H-pyrazol-4-yl)-3,4-dihydropyrazino[1,2-a]indol-2(1H)-yl)methyl)benzoic acid]
< 50	Cc1cc(OCCCc2c3n(c4c(-c5c(C)nn(C)c5C)c(Cl)ccc24)CCCN(c2cc(C(=O)O)cc4[nH]ccc24)C3=O)cc(C)c1Cl [I-252, 4-(8-chloro-11-(3-(4-chloro-3,5-dimethylphenoxy)propyl)-1-oxo-7-(1,3,5-trimethyl-1H-pyrazol-4-yl)-4,5-dihydro-1H-[1,4]diazepino[1,2-a]indol-2(3H)-yl)-1H-indole-6-carboxylic acid]
< 50	Cc1cc(OCCCc2c(C(=O)Nc3cc(C(=O)O)c4cc[nH]c4c3)[nH]c3c(-c4c(C)nn(C)c4C)c(Cl)ccc23)cc(C)c1Cl [I-238, 6-(6-chloro-3-(3-(4-chloro-3,5-dimethylphenoxy)propyl)-7-(1,3,5-trimethyl-1H-pyrazol-4-yl)-1H-indole-2-carboxamido)-1H-indole-4-carboxylic acid]
< 50	Cc1cc(OCCCc2c3n(c4c(-c5c(C)nn(C)c5C)c(Cl)ccc24)CCCN(c2cc(C(=O)O)c4ccn(Cc5cccnc5)c4c2)C3=O)cc(C)c1Cl [I-241, 6-(8-chloro-11-(3-(4-chloro-3,5-dimethylphenoxy)propyl)-1-oxo-7-(1,3,5-trimethyl-1H-pyrazol-4-yl)-4,5-dihydro-1H-[1,4]diazepino[1,2-a]indol-2(3H)-yl)-1-(pyridin-3-ylmethyl)-1H-indole-4-carboxylic acid]
< 50	Cc1cc(OCCCc2c3n(c4c(-c5c(C)nn(C)c5C)c(Cl)ccc24)C[C@@H](C)N(c2ccc(C(=O)O)c4ncccc24)C3=O)cc(C)c1Cl [I-158, (R)-5-(7-chloro-10-(3-(4-chloro-3,5-dimethylphenoxy)propyl)-3-methyl-1-oxo-6-(1,3,5-trimethyl-1H-pyrazol-4-yl)-3,4-dihydropyrazino[1,2-a]indol-2(1H)-yl)quinoline-8-carboxylic acid]
< 50	Cc1cc(OCCCc2c3n(c4c(-c5c(C)nn(C)c5C)c(Cl)ccc24)CCCN(c2cccc(C(=O)NS(C)(=O)=O)c2)C3=O)cc(C)c1Cl [I-368, 3-(8-chloro-11-(3-(4-chloro-3,5-dimethylphenoxy)propyl)-1-oxo-7-(1,3,5-trimethyl-1H-pyrazol-4-yl)-4,5-dihydro-H-[1,4]diazepino[1,2-a]indol-2(3H)-yl)-N-(methylsulfonyl)benzamide]
< 50	Cc1cc(OCCCc2c3n(c4c(-c5c(C)nn(C)c5C)c(Cl)ccc24)CCCN(c2cc(Cl)cc(C(=O)O)c2)C3=O)cc(C)c1Cl [I-221, 3-chloro-5-(8-chloro-11-(3-(4-chloro-3,5-dimethylphenoxy)propyl)-1-oxo-7-(1,3,5-trimethyl-1H-pyrazol-4-yl)-4,5-dihydro-1H-[1,4]diazepino[1,2-a]indol-2(3H)-yl)benzoic acid]
< 50	Cc1cc(OCCCc2c(C(=O)N3CC(NC(=O)C(=O)O)C3)[nH]c3c(-c4c(C)nn(C)c4C)c(Cl)ccc23)cc(C)c1Cl [I-323, 2-((1-(6-chloro-3-(3-(4-chloro-3,5-dimethylphenoxy)propyl)-7-(1,3,5-trimethyl-1H-pyrazol-4-yl)-1H-indole-2-carbonyl)azetidin-3-yl)amino)-2-oxoacetic acid]
< 50	Cc1cc(OCCCc2c3n(c4c(-c5c(C)nn(C)c5C)c(Cl)ccc24)CCCN(Cc2cc(Br)cc(C(=O)O)c2)C3=O)cc(C)c1Cl [I-299, 3-bromo-5-((8-chloro-11-(3-(4-chloro-3,5-dimethylphenoxy)propyl)-1-oxo-7-(1,3,5-trimethyl-1H-pyrazol-4-yl)-4,5-dihydro-1H-[1,4]diazepino[1,2-a]indol-2(3H)-yl)methyl)benzoic acid]

SMILES	Ki [nM]
Cc1cc(OCCCc2c(C(=O)NCCC(=O)NS(=O)(=O)c3ccccc3)[nH]c3ccccc23)cc(C)c1Cl [I-14, 3-(3-(4-chloro-3,5-dimethylphenoxy)propyl)-N-(3-oxo-3-(phenylsulfonamido)propyl)-1H-indole-2-carboxamide]	51 to 100
Cc1cc(OCCCc2c3n(c4c(-c5c(C)nn(C)c5C)c(Cl)ccc24)CCCN(c2scnc2C(=O)O)C3=O)cc(C)c1Cl [I-350, 5-(8-chloro-11-(3-(4-chloro-3,5-dimethylphenoxy)propyl)-1-oxo-7-(1,3,5-trimethyl-1H-pyrazol-4-yl)-4,5-dihydro-1H-[1,4]diazepino[1,2-a]indol-2(3H)-yl)thiazole-4-carboxylic acid]	< 50
Cc1cc(OCCCc2c(C(=O)N3CCN(c4ccc(C(=O)O)cc4)CC3)n(Cc3ccccc3)c3c(-c4c(C)nn(C)c4C)c(Cl)ccc23)cc(C)c1Cl [I-342, 4-(4-(1-benzyl-6-chloro-3-(3-(4-chloro-3,5-dimethylphenoxy)propyl)-7-(1,3,5-trimethyl-1H-pyrazol-4-yl)-1H-indole-2-carbonyl)piperazin-1-yl)benzoic acid]	51 to 100
Cc1cc(OCCCc2c(C(=O)NCc3ccc(C(=O)NS(=O)(=O)c4ccccc4)o3)[nH]c3ccccc23)cc(C)c1Cl [I-60, 3-(3-(4-chloro-3,5-dimethylphenoxy)propyl)-N-((5-((phenylsulfonyl)carbamoyl)furan-2-yl)methyl)-1H-indole-2-carboxamide]	101 to 299
Cc1cc(OCCCc2c3n(c4c(-c5c(C)nn(C)c5C)c(Cl)ccc24)C(C)[C@@H](C)NC3=O)cc(C)c1Cl (stereo partly drawn) [I-119, (3R)-7-chloro-10-(3-(4-chloro-3,5-dimethylphenoxy)propyl)-3,4-dimethyl-6-(1,3,5-trimethyl-1H-pyrazol-4-yl)-3,4-dihydropyrazino[1,2-a]indol-1(2H)-one]	101 to 299
Cc1cc(OCCCc2c(C(=O)NCC(=O)NS(=O)(=O)C3CC3)[nH]c3ccccc23)cc(C)c1Cl [I-9, 3-(3-(4-chloro-3,5-dimethylphenoxy)propyl)-N-(2-(cyclopropanesulfonamido)-2-oxoethyl)-1H-indole-2-carboxamide]	501 to 999
Cc1cc(OCCCc2c(C(=O)NCCC(=O)NS(=O)(=O)c3ccc([N+](=O)[O-])cc3)[nH]c3c(-c4c(C)n[nH]c4C)cccc23)cc(C)c1Cl [I-24, 3-(3-(4-chloro-3,5-dimethylphenoxy)propyl)-7-(3,5-dimethyl-1H-pyrazol-4-yl)-N-(3-((4-nitrophenyl)sulfonamido)-3-oxopropyl)-1H-indole-2-carboxamide]	101 to 299
Cc1cc(OCCCc2c(C(=O)NCC(=O)NS(=O)(=O)c3ccc4ccccc4c3)[nH]c3ccccc23)cc(C)c1Cl [I-7, 3-(3-(4-chloro-3,5-dimethylphenoxy)propyl)-N-(2-(naphthalene-2-sulfonamido)-2-oxoethyl)-1H-indole-2-carboxamide]	101 to 299

same assay, conditions: Table 2; Ki bins given in μM; FITC-Bak or FITC-Bim peptide competition; Ki converted from IC50; read-out: Ki for Inhibition of Mcl-1

SMILES	Ki [nM]
Cc1cc(OCCCc2c(C(=O)N3CCC(NC(=O)OC(C)(C)C)CC3)[nH]c3ccccc23)cc(C)c1Cl [I-48, tert-butyl (1-(3-(3-(4-chloro-3,5-dimethylphenoxy)propyl)-1H-indole-2-carbonyl)piperidin-4-yl)carbamate]	1000 to 9990
Cc1cc(OCCCc2c(C(=O)NCc3cccc(C(=O)NCc4ccccc4)c3)[nH]c3c(-c4c(C)n[nH]c4C)cccc23)cc(C)c1Cl [I-64, N-(3-(benzylcarbamoyl)benzyl)-3-(3-(4-chloro-3,5-dimethylphenoxy)propyl)-7-(3,5-dimethyl-1H-pyrazol-4-yl)-1H-indole-2-carboxamide]	10000 to 50000
